Data from ChEMBL document CHEMBL4630907 (2021).
Active and inactive are the calls of the source. The calls are words filed in the database; no cut-off is given here.

What was measured:
[1] = biological target: GABA-A receptor; anion channel; test: GPCRScan assay: inhibition of GABAA; assay type: protein-complex assay, Rattus norvegicus; design: radioligand conc. used [nm] 9.50 – 25.0, parental cells brain tissue
[2] = biological target: Bromodomain-containing protein 3 (Homo sapiens, UniProt Q15059); test: TR-FRET assay (BRD3 BD1)
[3] = biological target: Bromodomain-containing protein 1 (Homo sapiens, UniProt O95696); test: BRD1 DiscoverX BROMOscan
[4] = biological target: Histone acetyltransferase p300 (Homo sapiens, UniProt Q09472); test: EP300 DiscoverX BROMOscan
[5] = biological target: Nucleosome-remodeling factor subunit BPTF (Homo sapiens, UniProt Q12830); test: FALZ DiscoverX BROMOscan
[6] = biological target: 5-hydroxytryptamine receptor 2A (Homo sapiens, UniProt P28223); test: (§1) Cross screening panel
Sequence of 5-hydroxytryptamine receptor 2A (P28223 whole entry): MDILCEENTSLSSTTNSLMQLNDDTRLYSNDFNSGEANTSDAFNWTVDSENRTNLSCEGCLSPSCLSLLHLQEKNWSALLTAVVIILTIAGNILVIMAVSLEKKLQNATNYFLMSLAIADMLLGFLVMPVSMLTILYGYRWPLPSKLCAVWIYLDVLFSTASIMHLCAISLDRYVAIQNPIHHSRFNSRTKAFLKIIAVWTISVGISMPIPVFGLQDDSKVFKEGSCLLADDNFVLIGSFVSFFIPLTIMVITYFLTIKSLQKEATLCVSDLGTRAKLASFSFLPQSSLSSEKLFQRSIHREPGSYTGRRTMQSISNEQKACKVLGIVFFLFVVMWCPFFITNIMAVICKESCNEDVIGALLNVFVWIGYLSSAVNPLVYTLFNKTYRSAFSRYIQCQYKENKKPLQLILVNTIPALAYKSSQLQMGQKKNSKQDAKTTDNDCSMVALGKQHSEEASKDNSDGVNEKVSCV

[7] = biological target: 5-hydroxytryptamine receptor 2C (Homo sapiens, UniProt P28335); test: as §1
Sequence of 5-hydroxytryptamine receptor 2C (P28335 whole entry): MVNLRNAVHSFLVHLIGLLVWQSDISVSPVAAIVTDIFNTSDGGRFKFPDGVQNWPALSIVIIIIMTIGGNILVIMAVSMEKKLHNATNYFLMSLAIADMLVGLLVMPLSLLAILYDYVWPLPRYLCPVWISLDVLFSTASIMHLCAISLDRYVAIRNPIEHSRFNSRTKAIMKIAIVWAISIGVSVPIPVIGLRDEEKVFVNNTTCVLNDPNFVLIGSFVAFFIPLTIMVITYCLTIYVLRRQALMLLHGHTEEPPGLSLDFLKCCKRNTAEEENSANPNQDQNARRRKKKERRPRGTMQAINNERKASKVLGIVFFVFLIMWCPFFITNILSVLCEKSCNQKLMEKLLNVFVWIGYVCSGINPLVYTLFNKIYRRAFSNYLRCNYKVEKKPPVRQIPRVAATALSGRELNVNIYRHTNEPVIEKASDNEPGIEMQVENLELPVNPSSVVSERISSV

[8] = biological target: T1, 5-hydroxytryptamine receptor 3A (Homo sapiens, UniProt P46098); test: as §1
T1 sequence (P46098 whole entry): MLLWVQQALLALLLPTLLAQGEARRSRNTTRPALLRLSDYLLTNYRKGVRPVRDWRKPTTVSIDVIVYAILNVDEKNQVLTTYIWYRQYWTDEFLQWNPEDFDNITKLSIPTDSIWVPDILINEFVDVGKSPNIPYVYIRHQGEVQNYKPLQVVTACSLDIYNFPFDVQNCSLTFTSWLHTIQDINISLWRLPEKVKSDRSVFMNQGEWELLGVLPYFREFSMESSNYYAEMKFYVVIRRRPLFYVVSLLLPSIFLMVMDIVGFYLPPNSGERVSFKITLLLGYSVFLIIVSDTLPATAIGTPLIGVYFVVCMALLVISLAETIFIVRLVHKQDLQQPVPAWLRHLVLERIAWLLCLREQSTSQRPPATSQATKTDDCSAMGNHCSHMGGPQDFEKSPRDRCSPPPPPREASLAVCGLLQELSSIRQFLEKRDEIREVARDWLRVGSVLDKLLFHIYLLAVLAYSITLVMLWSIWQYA

[9] = biological target: Acetylcholine receptor subunit alpha (Homo sapiens, UniProt P02708); test: as §1
Sequence of Acetylcholine receptor subunit alpha (P02708 whole entry): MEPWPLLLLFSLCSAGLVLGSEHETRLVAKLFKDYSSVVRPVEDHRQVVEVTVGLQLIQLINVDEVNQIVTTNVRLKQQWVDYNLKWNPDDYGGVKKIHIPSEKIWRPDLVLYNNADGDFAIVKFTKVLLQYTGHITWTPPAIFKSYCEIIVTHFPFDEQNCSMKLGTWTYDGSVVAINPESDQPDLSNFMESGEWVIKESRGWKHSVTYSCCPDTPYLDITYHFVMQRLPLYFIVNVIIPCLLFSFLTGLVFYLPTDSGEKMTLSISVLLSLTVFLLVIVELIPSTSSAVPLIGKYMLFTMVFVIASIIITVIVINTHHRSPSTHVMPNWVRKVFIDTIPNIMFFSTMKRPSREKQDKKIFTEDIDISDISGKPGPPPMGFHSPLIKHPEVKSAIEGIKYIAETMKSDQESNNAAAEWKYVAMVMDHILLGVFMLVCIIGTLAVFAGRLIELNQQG

Acetylcholinesterase = Acetylcholinesterase (Homo sapiens, UniProt P22303); test: as §1
Adenosine receptor A2a = Adenosine receptor A2a (Homo sapiens, UniProt P29274); test: as §1
Aurora kinase B = Aurora kinase B (Homo sapiens, UniProt Q96GD4); test: as §1
Sequence of Aurora kinase B (Q96GD4 whole entry): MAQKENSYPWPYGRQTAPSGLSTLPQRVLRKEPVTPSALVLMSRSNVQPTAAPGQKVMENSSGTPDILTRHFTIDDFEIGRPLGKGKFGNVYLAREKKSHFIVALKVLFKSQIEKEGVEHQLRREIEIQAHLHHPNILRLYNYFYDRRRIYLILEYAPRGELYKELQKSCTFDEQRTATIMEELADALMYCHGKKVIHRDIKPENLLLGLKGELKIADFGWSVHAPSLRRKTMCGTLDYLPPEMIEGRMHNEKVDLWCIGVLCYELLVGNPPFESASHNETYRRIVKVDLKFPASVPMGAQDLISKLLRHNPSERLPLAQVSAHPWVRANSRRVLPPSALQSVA

Cannabinoid receptor 2 = Cannabinoid receptor 2 (Homo sapiens, UniProt P34972); test: as §1
Sequence of Cannabinoid receptor 2 (P34972 whole entry): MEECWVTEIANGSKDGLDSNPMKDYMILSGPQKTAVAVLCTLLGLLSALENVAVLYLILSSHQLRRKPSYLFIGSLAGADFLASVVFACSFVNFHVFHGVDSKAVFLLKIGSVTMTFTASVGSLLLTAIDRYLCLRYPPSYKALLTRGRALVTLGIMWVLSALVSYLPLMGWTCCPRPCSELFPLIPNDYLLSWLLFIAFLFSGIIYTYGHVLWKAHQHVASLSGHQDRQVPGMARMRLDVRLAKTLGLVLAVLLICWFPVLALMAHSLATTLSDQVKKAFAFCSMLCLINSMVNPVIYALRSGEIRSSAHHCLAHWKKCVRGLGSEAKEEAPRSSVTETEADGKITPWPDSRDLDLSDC

Cytochrome P450 3A4 = Cytochrome P450 3A4 (Homo sapiens, UniProt P08684); test: as §1
Sequence of Cytochrome P450 3A4 (P08684 whole entry): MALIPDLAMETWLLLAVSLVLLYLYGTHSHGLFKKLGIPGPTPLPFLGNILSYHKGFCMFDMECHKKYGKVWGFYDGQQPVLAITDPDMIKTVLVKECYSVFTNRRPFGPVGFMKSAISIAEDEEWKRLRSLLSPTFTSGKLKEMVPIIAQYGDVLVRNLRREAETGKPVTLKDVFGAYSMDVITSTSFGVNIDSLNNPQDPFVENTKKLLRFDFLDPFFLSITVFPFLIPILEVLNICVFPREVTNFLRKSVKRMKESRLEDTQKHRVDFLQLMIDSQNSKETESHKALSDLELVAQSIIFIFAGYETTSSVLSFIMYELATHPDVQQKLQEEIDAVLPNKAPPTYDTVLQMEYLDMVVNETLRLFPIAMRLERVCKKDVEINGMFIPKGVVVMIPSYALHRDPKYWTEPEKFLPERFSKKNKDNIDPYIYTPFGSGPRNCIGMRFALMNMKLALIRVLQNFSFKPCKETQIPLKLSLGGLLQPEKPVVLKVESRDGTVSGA

D(1A) dopamine receptor = D(1A) dopamine receptor (Homo sapiens, UniProt P21728); test: as §1
Sequence of D(1A) dopamine receptor (P21728 whole entry): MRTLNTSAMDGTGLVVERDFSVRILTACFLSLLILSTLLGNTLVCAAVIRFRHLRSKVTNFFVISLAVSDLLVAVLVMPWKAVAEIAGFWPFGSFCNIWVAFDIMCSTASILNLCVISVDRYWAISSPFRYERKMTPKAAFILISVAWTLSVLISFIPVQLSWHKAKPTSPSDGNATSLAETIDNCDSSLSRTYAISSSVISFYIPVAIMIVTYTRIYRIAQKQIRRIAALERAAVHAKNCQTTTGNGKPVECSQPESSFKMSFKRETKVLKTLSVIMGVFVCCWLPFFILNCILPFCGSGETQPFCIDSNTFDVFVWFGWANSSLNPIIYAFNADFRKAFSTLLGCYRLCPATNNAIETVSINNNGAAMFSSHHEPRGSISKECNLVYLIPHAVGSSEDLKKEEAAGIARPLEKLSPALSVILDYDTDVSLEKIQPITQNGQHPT

D(2) dopamine receptor = D(2) dopamine receptor (Homo sapiens, UniProt P14416); test: as §1
Sequence of D(2) dopamine receptor (P14416 whole entry): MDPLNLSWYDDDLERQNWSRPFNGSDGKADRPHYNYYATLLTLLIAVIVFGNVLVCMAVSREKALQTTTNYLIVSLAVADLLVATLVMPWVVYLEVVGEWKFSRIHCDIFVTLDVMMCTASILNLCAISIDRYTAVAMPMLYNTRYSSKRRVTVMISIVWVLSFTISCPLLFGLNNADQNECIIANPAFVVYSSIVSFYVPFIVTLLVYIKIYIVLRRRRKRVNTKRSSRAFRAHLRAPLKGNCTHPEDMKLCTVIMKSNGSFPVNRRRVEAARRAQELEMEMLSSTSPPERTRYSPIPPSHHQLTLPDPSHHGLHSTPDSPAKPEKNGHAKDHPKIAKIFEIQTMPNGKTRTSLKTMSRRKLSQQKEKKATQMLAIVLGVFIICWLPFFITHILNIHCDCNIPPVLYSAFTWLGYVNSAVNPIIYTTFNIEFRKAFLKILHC

Histamine H1 receptor = Histamine H1 receptor (Homo sapiens, UniProt P35367); test: as §1
Mu-type opioid receptor [10] = biological target: T2, Mu-type opioid receptor (Homo sapiens, UniProt P35372); test: as §1
T2 sequence (P35372 whole entry): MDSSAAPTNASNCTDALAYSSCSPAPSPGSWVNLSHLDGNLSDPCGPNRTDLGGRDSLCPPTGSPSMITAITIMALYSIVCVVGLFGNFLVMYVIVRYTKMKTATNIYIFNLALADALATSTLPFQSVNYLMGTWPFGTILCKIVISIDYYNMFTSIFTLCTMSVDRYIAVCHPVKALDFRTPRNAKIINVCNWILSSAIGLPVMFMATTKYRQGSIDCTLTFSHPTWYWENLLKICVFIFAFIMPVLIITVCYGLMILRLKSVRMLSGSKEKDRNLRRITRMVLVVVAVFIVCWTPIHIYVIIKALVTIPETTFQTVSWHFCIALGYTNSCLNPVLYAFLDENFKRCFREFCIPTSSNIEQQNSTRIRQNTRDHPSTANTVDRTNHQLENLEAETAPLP

[11] = biological target: Potassium voltage-gated channel subfamily A member 5 (Homo sapiens, UniProt P22460); test: as §1
[12] = biological target: Sodium channel protein type 5 subunit alpha (Homo sapiens, UniProt Q14524); test: as §1
[13] = biological target: Solute carrier organic anion transporter family member 1B1 (Homo sapiens, UniProt Q9Y6L6); test: as §1
[14] = biological target: 5-hydroxytryptamine receptor 5A (Homo sapiens) (UniProt P47898); conditions: Compound concentration 10.0 uM
Sequence of 5-hydroxytryptamine receptor 5A (Homo sapiens) (P47898 whole entry): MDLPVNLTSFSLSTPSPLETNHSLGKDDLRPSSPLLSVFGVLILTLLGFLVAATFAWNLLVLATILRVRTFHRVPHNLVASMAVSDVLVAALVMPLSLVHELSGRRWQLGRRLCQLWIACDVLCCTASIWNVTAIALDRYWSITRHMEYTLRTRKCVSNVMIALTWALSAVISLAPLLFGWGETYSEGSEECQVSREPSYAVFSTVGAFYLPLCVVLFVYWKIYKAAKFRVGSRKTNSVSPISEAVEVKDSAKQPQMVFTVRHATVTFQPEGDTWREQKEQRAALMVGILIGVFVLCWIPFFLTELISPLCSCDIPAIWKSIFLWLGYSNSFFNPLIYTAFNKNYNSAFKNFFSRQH

Mu-type opioid receptor [15] = biological target: T2, Mu-type opioid receptor; conditions: Compound concentration 10.0 uM
[16] = biological target: Delta-type opioid receptor (Homo sapiens) (UniProt P41143); conditions: Compound concentration 10.0 uM
[17] = biological target: Histamine H4 receptor (Homo sapiens) (UniProt Q9H3N8); conditions: Compound concentration 10.0 uM
Sequence of Histamine H4 receptor (Homo sapiens) (Q9H3N8 whole entry): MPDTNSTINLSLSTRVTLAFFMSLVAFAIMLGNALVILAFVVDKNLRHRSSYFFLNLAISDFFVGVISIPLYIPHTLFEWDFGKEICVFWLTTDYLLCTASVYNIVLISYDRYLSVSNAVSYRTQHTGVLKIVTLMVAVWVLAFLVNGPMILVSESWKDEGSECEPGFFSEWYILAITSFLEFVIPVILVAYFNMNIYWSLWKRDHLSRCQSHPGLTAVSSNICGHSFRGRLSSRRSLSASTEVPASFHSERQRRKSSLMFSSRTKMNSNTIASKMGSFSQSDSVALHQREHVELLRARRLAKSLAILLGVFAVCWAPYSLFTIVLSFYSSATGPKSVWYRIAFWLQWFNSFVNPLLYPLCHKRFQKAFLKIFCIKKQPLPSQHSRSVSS

[18] = biological target: Beta-1 adrenergic receptor (Homo sapiens) (UniProt P08588); conditions: Compound concentration 10.0 uM
[19] = biological target: Muscarinic acetylcholine receptor M3 (Homo sapiens) (UniProt P20309); conditions: Compound concentration 10.0 uM
[20] = biological target: Muscarinic acetylcholine receptor M5 (Homo sapiens) (UniProt P08912); conditions: Compound concentration 10.0 uM
[21] = biological target: Beta-3 adrenergic receptor (Homo sapiens) (UniProt P13945); conditions: Compound concentration 10.0 uM

For `COCc1nc2cnc3cc(-c4c(C)noc4C)c(OC[C@H]4CCNC4)cc3c2n1[C@H](C)c1ccccc1` [GSK778], the Ki [1] was 1.6 µM, the pKi [1] was 5.81 and the IC50 [2] was 0.041 µM (active). The Kd [3] was 30 µM, the Kd [4] was 5.7 µM and the Kd [5] was 30 µM. For the same molecule, the EC50 [6] was > 25.1 µM, the IC50 [6] was > 25.1 µM and the EC50 [7] was > 25.1 µM. The IC50 [7] was > 25.1 µM, the EC50 [8] was > 50.1 µM and the IC50 [8] was > 50.1 µM. The EC50 [9] was > 50.1 µM, the IC50 [9] was 1 µM and the IC50 (Acetylcholinesterase) was 63.1 µM. For the same molecule, the EC50 (Adenosine receptor A2a) was > 100 µM, the IC50 (Aurora kinase B) was > 31.6 µM and the EC50 (Cannabinoid receptor 2) was > 100 µM. For the same molecule, the IC50 (Cytochrome P450 3A4) was 6.31 µM, the IC50 (D(1A) dopamine receptor) was > 100 µM and the EC50 (D(2) dopamine receptor) was > 100 µM. For the same molecule, the IC50 (D(2) dopamine receptor) was 3.16 µM, the IC50 (Histamine H1 receptor) was > 25.1 µM and the EC50 (Mu-type opioid receptor [10]) was > 100 µM. For the same molecule, the IC50 [11] was > 50.1 µM, the IC50 [12] was 50.1 µM and the IC50 [13] was 39.8 µM. For the same molecule, the inhibition [14] was 21.5%, the inhibition (Mu-type opioid receptor [15]) was 16.9% and the inhibition [16] was 38.5%. The inhibition [17] was 29.3%, the inhibition [18] was 4.82% and the inhibition [19] was -3.35%. For the same molecule, the inhibition [20] was 24.6% and the inhibition [21] was 10.5%.
